Experimental data taken from patent publication US20240391892A1, “A SMALL MOLECULE COMPOUND AND ITS USE AND PREPARATION METHOD” (SHANGHAI COACHCHEM TECHNOLOGY CO., LTD, priority 2022, published 2024).
Values joined by “and” are separate entries in the source; they are usually repeats but may differ in a detail not shown here. Identical values can stand only once.

Legend:
[1] = In vitro DPPH free radical scavenging test; format: biochemical; parameters: DPPH Free Radical Scavenging Rate (%v/v): unit not given here; settings: for DPPH Free Radical Scavenging Rate (%v/v): mean ± SD; for DPPH Free Radical Scavenging Rate (%): replicate wells
Description: The DPPH radical scavenging assay is an in vitro method used to evaluate antioxidant activity. DPPH is a stable free radical in organic solvents and appears purple in methanol or ethanol, with maximum absorption at a wavelength of 517 nm. The DPPH assay is based on the ability of an antioxidant to donate an electron to the DPPH radical, converting its purple color to yellow. The degree of absorbance change at 517 nm corresponds to the extent of the free radical scavenging activity, meaning the stronger the scavenging ability of the antioxidant, the lower the absorbance.
Using ascorbic acid (VC) as a system reference, dilute it with PBS to obtain five concentrations: 12.5, 25, 50, 100, and 200 μg/mL. Perform the test and calculations according to the procedure outlined in 3.3.2. Plot the reference curve with the concentration of the reference substance on the x-axis and the DPPH free radical scavenging rate on the y-axis.
Prepare the samples into the respective concentrations of test solutions. Prepare the reaction system by adding the specified amount of each reagent mentioned in Table 1, mix thoroughly. For each concentration, set up three replicate wells and one blank control well.
The reaction system is placed at room temperature and allowed to react in the dark for 30 minutes. After the reaction is complete, the absorbance (OD value) is measured at 515 nm. The formula to calculate the scavenging rate of the sample against DPPH free radicals is as follows:
[formula] [formula] • Where: • C1=Absorbance value of the blank with DPPH • C2=Absorbance value of the blank without DPPH • T1=Absorbance value of the sample with DPPH • T2=Absorbance value of the sample without DPPH

HaCat cells = assay: Intracellular ROS scavenging test in UVB-irradiated HaCat cells; format: cell-based, human; settings: UVB 20 mJ/cm2, 24 hours incubation, vs UVB control, p<0.001
Experimental: Among these factors, UV radiation stands as the most significant contributor. Skin exposed to UV radiation generates an excess of reactive oxygen species (ROS) within cells, triggering the expression of genes related to aging, instigating an inflammatory cascade, and reducing the expression of elastin and collagen proteins, leading to manifestations of photoaging like skin laxity and wrinkles. Photoaging predominantly occurs in the dermis.
UVB irradiation is administered to immortalized human keratinocytes (HaCat cells) to induce intracellular reactive oxygen species (ROS) generation. The UVB dose applied to HaCat cells is 20 mJ/cm2. Following the UVB treatment, varying concentrations of Retinyl 4-t-Butylcyclohexanol test samples are added to the cells and incubated for 24 hours. ROS levels within the cells are assessed using a ROS detection kit.
Graph Pad Prism was used for statistical plotting, and the results were presented as Mean±SD. Statistical analysis was conducted using the t-test. A significance level of p<0.05 was considered statistically significant, where *p<0.05, ** p<0.0 1 (0.005<** p<0.01), and *** p<0.001, indicating increased significance as the p-value decreases. When employing the t-test for statistical analysis, the comparison between the UVB control group and the Control group was represented as # (p<0.001 indicated as ###). […]

[2] = Stability test under light and temperature, content by HPLC-DAD; format: physicochemical
Experimental: To compare the stability of Retinyl-trans-4-tert-Butylcyclohexanol and retinol […] under different conditions.
A certain amount of retinol and Retinyl-trans-4-tert-Butylcyclohexanol is taken and placed under conditions of light exposure, 4° C., 25° C., 45° C., and 50° C. for 28 days. Samples are periodically collected to determine their content and examine the influence of light and temperature on their stability.
High-Performance Liquid Chromatography with Diode Array Detection (HPLC-DAD), Electronic Balance (precision of 0.01 mg), Chromatographic Column (Welch Ultimate series XB-C18 column, 250 mm*4.6 mm, 5 μm), Several volumetric flasks.
(§1) Accurately weigh approximately 0.1g of Retinyl-trans-4-tert-Butylcyclohexanol samples obtained under conditions of light exposure, 4° C., 25° C., 45° C., and 50° C. into a 100 mL brown volumetric flask. Add an appropriate amount of acetonitrile while avoiding light, ultrasonicate, dilute to the mark, shake well, and prepare two parallel samples for each condition.
as §1, with “0.1 g” for “0.1g”, “retinol” for “Retinyl-trans-4-tert-Butylcyclohexanol”
Operate according to the procedures for high-performance liquid chromatography (HPLC) usage and maintenance: • I) Run the blank solvent, inject 2 times, record the chromatogram for up to 30 minutes; • II) Run at least 3 injections of the control solution 1, record the chromatogram for up to 30 minutes; • III) Run the control solution 2, inject 2 times, record the chromatogram for up to 30 minutes; • IV) Inject 2 samples of the test solution, record the chromatogram for up to 30 minutes; • V) Adjust the chromatogram scale, integrate, and print. […]

| SMILES | DPPH free radical scavenging compared to the control group ([1]; concentrations 0.02% to 4%, p<0.001) | DPPH Free Radical Scavenging Rate (%v/v) ([1]; sample concentration 0.02 %v/v) | DPPH Free Radical Scavenging Rate (%v/v) ([1]; sample concentration 0.1 %v/v) | DPPH Free Radical Scavenging Rate (%v/v) ([1]; sample concentration 0.5 %v/v) | DPPH Free Radical Scavenging Rate (%v/v) ([1]; sample concentration 2 %v/v) | DPPH Free Radical Scavenging Rate (%v/v) ([1]; sample concentration 4 %v/v) | UVB-induced intracellular ROS levels (HaCat cells) | Content after storage ([2]; 28 days at 4° C.) | Content after storage ([2]; 28 days at room temperature) | Stability compared with retinol ([2]; light exposure, room temperature, 45° C. and 50° C., 28 days, not at 4° C.) | DPPH Free Radical Scavenging Rate (%) ([1]; concentration 12.5 μg/mL) | DPPH Free Radical Scavenging Rate (%) ([1]; concentration 25 μg/mL) | DPPH Free Radical Scavenging Rate (%) ([1]; concentration 50 μg/mL) | DPPH Free Radical Scavenging Rate (%) ([1]; concentration 100 μg/mL) | DPPH Free Radical Scavenging Rate (%) ([1]; concentration 200 μg/mL) |
| --- | --- | --- | --- | --- | --- | --- | --- | --- | --- | --- | --- | --- | --- | --- | --- |
| CC1=C(/C=C/C(C)=C/C=C/C(C)=C/C(=O)O[C@H]2CC[C@H](C(C)(C)C)CC2)C(C)(C)CCC1 [Retinyl 4-trans-t-Butylcyclohexanol, retinoic acid trans-4-tert-butylcyclohexyl ester] | statistically significant increase | 9.87 ± 3.44 | 15.91 ± 1.25 | 36.72 ± 1.98 | 48.12 ± 1.07 | 83.96 ± 1.22 | effectively reduced | above 98% | above 98% | significantly higher | – | – | – | – | – |
| O=C1O[C@H]([C@@H](O)CO)C(O)=C1O [ascorbic acid] | – | – | – | – | – | – | – | – | – | – | 20.55% and 18.55% and 20.32% | 30.26% and 31.17% and 32.98% | 64.58% and 65.09% and 62.73% | 101.32% and 95.11% and 97.07% | 101.28% and 92.01% and 108.75% |
